# Reference: PMC8619920, “New Polyesterified Ursane Derivatives from Leaves of Maesa membranacea and Their Cytotoxic Activity” (Molecules, 2021)
# Assays:
# [1] = Cytotoxicity, LDH assay, HTB140 cells; assay type: cell-based, human; details: human, HTB140 melanoma cells, 24 h, mean ± SD of three, read-out: Cell viability HTB140
# Method: (§1) Cytotoxic activity was tested on human cancer and normal cells, grouped in three panels, namely: prostate, skin and gastrointestinal. The prostate panel consisted of prostate cancer cell lines Du145 (ATCC HTB-81) and PC3 (ATCC CRL-1435), and prostate epithelial cells PNT-2 (ECACC 95012613). Melanoma cell lines A375 (ATCC CRL-1619) and HTB140 (ATCC Hs 294T) together with skin keratinocytes HaCaT (obtained as a kind gift of prof. Marta Michalik, Department of Cell Biology, Jagiellonian University, Kraków, Poland) were included into the skin panel. The gastrointestinal panel of cells comprised colon cancer cell lines Caco-2 (ATCC HTB-37) and HT29 (ATCC HTB-38). Du145 cells were grown in Modified Eagle’s Medium with low (1.0 g/L) glucose concentration, HT29, PC3 and PNT-2 cells in Dulbecco’s Modified Eagle’s Media: F12 HAM Nutrient Mixture, Caco-2 in Modified Eagle’s Medium with NEAA (no-essential amino acids) while melanoma cells and keratinocytes were maintained in Modified Eagle’s Medium with high (4.5 g/L) glucose concentration. The culture media (all supplied by Sigma-Aldrich Co.; St. Louis, MO, USA) contained antibiotics and 10% fetal bovine serum (FBS). All cultures were maintained at 37 °C, in a humidified, 5% CO2 containing, atmosphere.
# (§2) The examined triterpenes were diluted in the culture media from freshly made stock solutions in MeOH (10 mg/mL) to the working concentrations (from 0 to 100 μg/mL).
# (§3) Cell viability was determined as it was described previously. Cells suspended in the nutrient medium were transferred into 96-well microtiter plates (density 1.5 × 10^4 per well), and preincubated for 24 h (37 °C, 5% CO2). Then, the culture medium was replaced with the medium containing different concentrations of 1 or 2 (1–100 μg/mL). After 24 h of incubation, viability of the cells was determined using colorimetric lactate dehydrogenase (LDH) assay, in comparison to the controls to which corresponding aliquots of MeOH diluted with culture media were added. Cells grown in the medium without the tested compounds were used as control I (negative) and the positive control (control II) was obtained by incubation of the cells in the medium containing 1% Triton X-100. LDH released from the damaged cells into the cell culture medium was quantified by measuring the absorbance at 490 nm using Synergy II Biotek (BioTek Instruments, Winooski, VT, USA) microplate reader. Cytotoxicities of the examined compounds were calculated as follows: [(absorbance of the tested sample − absorbance of control I)/(absorbance of control II − absorbance of control I)] × 100. Results were means of three independent measurements (± SD). Doxorubicin (Ebewe Pharma GmbH., Unterach, Austria) was used as a reference cytostatic drug. The IC50 values were determined by plotting the percentage viability of the cells versus concentration and the adequate calculations made using AAT Bioquest website program (https://www.aatbio.com/tools/ic50-calculator, accessed on 29 October 2021).
# [2] = test system: HTB140 human melanoma cells; assay: Cytotoxicity, LDH assay, HTB140 cells; assay type: cell-based; details: Homo sapiens; 24 h treatment, 5–100 μg/mL
# Method: as §1, §2, §3
# [3] = Cytotoxicity, LDH assay, Caco-2 cells; assay type: cell-based, human; details: human, Caco-2, 24 h, mean ± SD of three, read-out: Cell viability Caco-2
# Method: as §1, §2, §3
# [4] = test system: Caco-2 human colon adenocarcinoma cells; assay: Cytotoxicity, LDH assay, Caco-2 cells; assay type: cell-based; details: Homo sapiens, Caco-2, 24 h, 24 h treatment, 5–100 μg/mL
# Method: as §1, §2, §3
# [5] = Cytotoxicity, LDH assay, HaCaT cells; assay type: cell-based, human; details: human, 24 h, mean ± SD of three, read-out: Cell viability HaCaT
# Method: as §1, §2, §3
# [6] = test system: HaCaT human immortalized keratinocytes; assay: Cytotoxicity, LDH assay, HaCaT cells; assay type: cell-based; details: Homo sapiens, HaCaT; 24 h treatment, 5–100 μg/mL
# Method: as §1, §2, §3
# [7] = test system: PC3 human prostate adenocarcinoma cells; assay: Cytotoxicity, LDH assay, PC3 cells; assay type: cell-based
# Method: as §1, §2, §3
# [8] = test system: PNT-2 human normal prostate epithelium cells; assay: Cytotoxicity, LDH assay, PNT-2 cells; assay type: cell-based; details: Homo sapiens, PNT2; 24 h treatment, 5–100 μg/mL
# Method: as §1, §2, §3
# [9] = Cytotoxicity, LDH assay, PNT-2 cells; assay type: cell-based, human; details: human, 24 h, mean ± SD of three, read-out: Cell viability PNT-2
# Method: as §1, §2, §3
# [10] = test system: DU145 human prostate carcinoma cells; assay: Cytotoxicity, LDH assay, DU145 cells; assay type: cell-based; details: Homo sapiens, DU-145, 24 h, 24 h treatment, 5–100 μg/mL
# Method: as §1, §2, §3
# [11] = Cytotoxicity, LDH assay, DU145 cells; assay type: cell-based, human; details: human, DU145 prostate carcinoma cells, 24 h, mean ± SD of three, read-out: Cell viability DU145
# Method: as §1, §2, §3
# [12] = Cytotoxicity, LDH assay, HT29 cells; assay type: cell-based, human; details: human, HT29 colon adenocarcinoma cells, 24 h, mean ± SD of three, read-out: Cell viability HT29
# Method: as §1, §2, §3
# [13] = test system: HT29 human colon adenocarcinoma cells; assay: Cytotoxicity, LDH assay, HT29 cells; assay type: cell-based; details: Homo sapiens, HT-29; 24 h treatment, 5–100 μg/mL
# Method: as §1, §2, §3
structure (smiles),measurement,setting,value
"CC(=O)OC1CC2(C)C(C(OC(C)=O)CC3(C)C2C(O)C=C2C4C(C)C(C)(O)CC(OC(C)=O)C4(C)CCC23C)C(C)(C)C1O (stereo not drawn) [Compound 2, 2α,6β,22α-triacetoxy-urs-12-ene-3α,11α,20β-triol]","viability at 24 h, 5 μg/mL",[1]; 5 μg/mL,97.48 ± 0.79%
same,"viability at 24 h, 20 μg/mL",[1]; 20 μg/mL,96.4 ± 0.83%
same,"viability at 24 h, 30 μg/mL",[1]; 30 μg/mL,94.3 ± 1.45%
same,"viability at 24 h, 40 μg/mL",[1]; 40 μg/mL,93.7 ± 1.11%
same,"viability at 24 h, 50 μg/mL",[1]; 50 μg/mL,92 ± 1.64%
same,"viability at 24 h, 100 μg/mL",[1]; 100 μg/mL,89.5 ± 1.4%
same,IC50,[2],> 100 µg/mL
same,"viability at 24 h, 5 μg/mL",[3]; 5 μg/mL,94.7 ± 1.42%
same,"viability at 24 h, 10 μg/mL",[3]; 10 μg/mL,88.4 ± 0.92%
same,"viability at 24 h, 20 μg/mL",[3]; 20 μg/mL,82 ± 1.69%
same,"viability at 24 h, 30 μg/mL",[3]; 30 μg/mL,74.7 ± 1.19%
same,"viability at 24 h, 40 μg/mL",[3]; 40 μg/mL,65.8 ± 1.25%
same,"viability at 24 h, 50 μg/mL",[3]; 50 μg/mL,61.1 ± 2.37%
same,"viability at 24 h, 100 μg/mL",[3]; 100 μg/mL,49.6 ± 1.49%
same,IC50,[4],> 50 µg/mL
same,"viability at 24 h, 100 μg/mL","[5]; HaCaT immortalized keratinocytes, 100 μg/mL",54.3 ± 1.78%
same,"viability at 24 h, 5 μg/mL","[5]; HaCaT keratinocytes, 5 μg/mL",96.84 ± 0.6%
same,"viability at 24 h, 10 μg/mL","[5]; HaCaT keratinocytes, 10 μg/mL",94.5 ± 1.55%
same,"viability at 24 h, 20 μg/mL","[5]; HaCaT keratinocytes, 20 μg/mL",90.6 ± 0.66%
same,"viability at 24 h, 30 μg/mL","[5]; HaCaT keratinocytes, 30 μg/mL",82.8 ± 1.23%
same,"viability at 24 h, 40 μg/mL","[5]; HaCaT keratinocytes, 40 μg/mL",75.7 ± 1.76%
same,"viability at 24 h, 50 μg/mL","[5]; HaCaT keratinocytes, 50 μg/mL",61.8 ± 1.55%
same,IC50,[6],> 100 µg/mL
same,Cell viability PC3,"[7]; 100 μg/mL, 24 h, mean ± SD of three",> 47%
same,IC50,"[7]; Homo sapiens, PC-3, 24 h, 24 h treatment, 5–100 μg/mL",> 50 µg/mL
same,IC50,[8],> 100 µg/mL
same,"viability at 24 h, 100 μg/mL","[9]; PNT-2 normal prostate epithelium cells, 100 μg/mL",93.56 ± 0.5%
same,"viability at 24 h, 5 μg/mL","[9]; PNT-2 prostate epithelial cells, 5 μg/mL",97.49 ± 0.79%
same,"viability at 24 h, 20 μg/mL","[9]; PNT-2 prostate epithelial cells, 20 μg/mL",96.3 ± 1.04%
same,"viability at 24 h, 30 μg/mL","[9]; PNT-2 prostate epithelial cells, 30 μg/mL",95.64 ± 0.65%
same,"viability at 24 h, 40 μg/mL","[9]; PNT-2 prostate epithelial cells, 40 μg/mL",95.37 ± 0.75%
same,"viability at 24 h, 50 μg/mL","[9]; PNT-2 prostate epithelial cells, 50 μg/mL",94.56 ± 0.32%
same,IC50,[10],> 100 µg/mL
same,"viability at 24 h, 5 μg/mL",[11]; 5 μg/mL,97.3 ± 0.27%
same,"viability at 24 h, 10 μg/mL",[11]; 10 μg/mL,94.54 ± 0.58%
same,"viability at 24 h, 20 μg/mL",[11]; 20 μg/mL,90.07 ± 0.71%
same,"viability at 24 h, 30 μg/mL",[11]; 30 μg/mL,83.2 ± 1.24%
same,"viability at 24 h, 40 μg/mL",[11]; 40 μg/mL,77.1 ± 1.63%
same,"viability at 24 h, 50 μg/mL",[11]; 50 μg/mL,68.6 ± 1.78%
same,"viability at 24 h, 100 μg/mL",[11]; 100 μg/mL,57.3 ± 1.9%
same,"viability at 24 h, 5 μg/mL",[12]; 5 μg/mL,95.76 ± 0.69%
same,"viability at 24 h, 10 μg/mL",[12]; 10 μg/mL,94.55 ± 0.84%
same,"viability at 24 h, 20 μg/mL",[12]; 20 μg/mL,90.05 ± 0.74%
same,"viability at 24 h, 30 μg/mL",[12]; 30 μg/mL,81.7 ± 1.56%
same,"viability at 24 h, 40 μg/mL",[12]; 40 μg/mL,74.8 ± 1.13%
same,"viability at 24 h, 50 μg/mL",[12]; 50 μg/mL,67.2 ± 1.25%
same,"viability at 24 h, 100 μg/mL",[12]; 100 μg/mL,56.9 ± 1.85%
same,IC50,[13],> 100 µg/mL
